We go through 27 molecules from paper PMC11053489 (Viruses, 2024).

The test system of data set [1] is SARS-CoV-2 (hCoV-19/USA-WA1/2020) in Vero CCL-81 cells. Kind of data set: microbe, parasite or virus in culture. The settings on record: for anti-SARS-CoV-2 activity (in words), concentrations up to 100 μM: Vero CCL-81 cells. In kind it is cell-based.
The conditions of data set [2]: human, in vivo.
A short description of the next data set: in vitro. The settings on record: African green monkey.
Data set [3] can be described thus: MTS cytotoxicity assay, Vero CCL-81 cells. To be noted: African green monkey.
A short description of data set [4]: Peak plasma concentration. To be noted: human, in vivo.
For data set [5] the following is noted: cited from earlier work; for Fun: Table 3, 1 – fraction bound reported in the literature, ref column Refs of Table 3.
The subject of data set [6] is SARS-CoV-2 (hCoV-19/USA-WA1/2020) in Calu-3 cells. Kind of data set: microbe, parasite or virus in culture. In kind it is cell-based. To be noted: Severe acute respiratory syndrome coronavirus 2, Calu-3, MOI 0.01, 72 h, 2% FBS.
Data set [7] has as its system SARS-CoV-2 (hCoV-19/USA-WA1/2020) in Caco-2 cells. To be noted: Caco-2.
The test system is the same in data set [8]. Kind of data set: microbe, parasite or virus in culture. The settings on record: Severe acute respiratory syndrome coronavirus 2, Caco-2, 72 h.
[9] abbreviates: Severe acute respiratory syndrome coronavirus 2, Table 3, drugs tested only in Vero CCL-81, MOI 0.1, 48 h, read-out: Vero CCL-81 Cells EC50.
[10] abbreviates: Severe acute respiratory syndrome coronavirus 2, Table 3, drugs tested only in Vero CCL-81, MOI 0.1, 48 h, read-out: Vero CCL-81 Cells EC90.
The mark [11] stands for this setting: NAs and nucleoside-base precursors, evaluated up to 20 μM.

SMILES strings stand for the structures. Structures can show the parent of a compound that is named as a salt. Where two headings read alike, the source gives them in different places.

Broadly, the EC50 is the concentration giving half of the maximal effect. Usually EC90 stands for the point of the concentration-response curve where the effect stands at 90%.

Consider `CC#CC(=O)N1CCC[C@H]1c1nc(-c2ccc(C(=O)Nc3ccccn3)cc2)c2c(N)nccn12` [Acalabrutinib], for which, in data set [1] (setting [9]), the EC50 was 11.1 µM. For the same molecule, in [1] (setting [10]), the EC90 worked out at 70.9 µM. In data set [2], the “Cmax (μM) {unbound}” value turned out to be 0.017 µM. For the same molecule, the CC50 at 3 days in “in vitro” was > 100 µM.

Take `NC12CC3CC(CC(C3)C1)C2` [Amantadine]: the CC50 at 3 days in data set [3] is > 100 µM. Further, in data set [4], the “Cmax (μM) {unbound}” value is 0.002 µM.

Take `CN(Cc1cc(Br)cc(Br)c1N)C1CCCCC1` [Bromhexine]: the 50% effective concentration (EC50) in [1] (setting [9]) came out at 0.8 µM. Besides, the 90% effect concentration (EC90) in data set [1] (setting [10]) amounted to 6.2 µM. Besides, the “Cmax (μM) {unbound}” value in [2] stood at 0.005 µM. Further, the CC50 at 3 days in “in vitro” is > 100 µM.

In the case of `CCCCCc1cc(O)c2c(c1)OC(C)(C)c1ccc(C)cc1-2` [Cannabinol], the EC50 in data set [1] (Severe acute respiratory syndrome coronavirus 2, 48 h, read-out: Vero CCL-81 Cells EC50) turned out to be 2.7 µM. In addition, the EC90 in [1] (Severe acute respiratory syndrome coronavirus 2, 48 h, read-out: Vero CCL-81 Cells EC90) came out at 8.7 µM. The molecule also registered a CC50 in “in vitro” of 37.3 µM. The Fun in data set [5] is recorded as 0.1.

Turning to `CN(C)CCC(c1ccc(Cl)cc1)c1ccccn1` (centres unmarked) [Chlorpheniramine maleate], the EC50 in [1] (setting [9]) was found to be 31 µM. Besides, in data set [1] (setting [10]), the EC90 worked out at 104 µM. Also, the Fun in [5] is listed as 0.28. In addition, in data set [3], the CC50 at 3 days was > 100 µM. In addition, the “Cmax (μM) {unbound}” value in [4] amounted to 0.008 µM.

`CC(C)C(=O)OCC(=O)[C@@]12O[C@H](C3CCCCC3)O[C@@H]1C[C@H]1[C@@H]3CCC4=CC(=O)C=C[C@]4(C)[C@H]3[C@@H](O)C[C@@]12C` [Ciclesonide]: in data set [1] (setting [9]), the EC50 came to 4.1 µM. For the same molecule, the EC90 in data set [1] (setting [10]) was determined as 7.8 µM. The “Cmax (μM) {unbound}” value in [2] is recorded as 0.0000/1 μM. For the same molecule, the CC50 at 3 days in the data set “in vitro” is 33.9 µM.

Consider `CC(C)/N=c1\cc2n(-c3ccc(Cl)cc3)c3ccccc3nc-2cc1Nc1ccc(Cl)cc1` [Clofazimine], for which the EC50 in data set [1] (setting [9]) was found to be 0.5 µM. Moreover, the EC90 in data set [1] (setting [10]) is 3 µM. Besides, the CC50 at 3 days in the data set “in vitro” is 34.3 µM. The Fun in data set [5] is reported as 0.001. Also, the “Cmax (μM) {unbound}” value in [4] was 0.002 µM.

For the molecule `O=C(O)Cc1ccccc1Nc1c(Cl)cccc1Cl` [Diclofenac sodium], the EC50 in data set [1] (setting [9]) was found to be 97.6 µM. Moreover, in data set [1] (setting [10]), the EC90 was 141 µM. In addition, the CC50 at 3 days in data set [3] was > 100 µM. For the same molecule, in [4], the “Cmax (μM) {unbound}” value was determined as 0.012 µM.

With `C[C@H]1c2cccc(O)c2C(=O)C2=C(O)[C@]3(O)C(=O)C(C(N)=O)=C(O)[C@@H](N(C)C)[C@@H]3[C@@H](O)[C@@H]21` [Doxycycline], the EC50 in data set [1] (setting [9]) stood at 69.3 µM. For the same molecule, the EC90 in data set [1] (setting [10]) came out at 102 µM. In addition, in data set [5], the Fun is 0.15. Besides, in data set [3], the CC50 at 3 days was ≥ 100 µM. Also, the “Cmax (μM) {unbound}” value in [4] was determined as 0.55 µM.

As for `COC(=O)N[C@H](C(=O)N1CCC[C@H]1c1nc(-c2ccc3c(c2)O[C@@H](c2ccccc2)n2c-3cc3cc(-c4c[nH]c([C@@H]5CCCN5C(=O)[C@@H](NC(=O)OC)C(C)C)n4)ccc32)c[nH]1)C(C)C` [Elbasivir], the EC50 in data set [1] (setting [9]) stood at 3.4 µM. In addition, the EC90 in data set [1] (setting [10]) is 12.5 µM. In addition, the “Cmax (μM) {unbound}” value in [2] came to 0.003 µM. The CC50 at 3 days in the data set “in vitro” was > 100 µM.

Regarding `NC(N)=Nc1nc(CSCCC(N)=NS(N)(=O)=O)cs1` [Famotidine], the EC50 in [1] (setting [9]) was determined as 160 µM. The Fun in [5] was 0.8. Also, the CC50 at 3 days in [3] is > 100 µM. In addition, in [4], the “Cmax (μM) {unbound}” value was determined as 0.16 µM.

For the molecule `CN1CC[C@H](c2c(O)cc(O)c3c(=O)cc(-c4ccccc4Cl)oc23)[C@H](O)C1` [Flavopiridol], in data set [1] (setting [9]), the EC50 was 0.1 µM. Besides, in data set [1] (setting [10]), the EC90 turned out to be 1.1 µM. In addition, in data set [5], the Fun is reported as 0.05. The molecule also yielded a CC50 at 3 days in data set [3] of 0.031 µM. In addition, the “Cmax (μM) {unbound}” value in [4] worked out at 0.096 µM.

Regarding `O=C1O[C@H]([C@@H](O)CO)C(O)=C1O` [L-ascorbic acid], the “anti-SARS-CoV-2 activity (in words), concentrations up to 100 μM” value (from here on “anti-SARS-CoV-2 activity (in words)”) in data set [1] is “inactive”.

With `COc1ccc2[nH]cc(CCNC(C)=O)c2c1` [Melatonin], the EC50 in data set [1] (setting [9]) amounted to 22 µM. Besides, in [5], the Fun is listed as 0.22. In addition, the CC50 at 3 days in [3] was > 100 µM. The “Cmax (μM) {unbound}” value in [4] was 0.005 µM.

Turning to `CC(C)C(=O)OC[C@H]1O[C@@H](n2ccc(NO)nc2=O)[C@H](O)[C@@H]1O` [Molnupiravir (NHC), Molnupiravir], the EC50 in [6] (read-out: Calu-3 SARS-CoV-2 EC50) is 0.4 µM; in data set [1] (Severe acute respiratory syndrome coronavirus 2, Table 1 drugs, MOI 0.1, 48 h, 2% FBS, read-out: Vero CCL-81 SARS-CoV-2 EC50), 0.6 µM; in [8] (read-out: Caco-2 SARS-CoV-2 EC50), 1.7 µM. For the same molecule, the EC90 in data set [6] (read-out: Calu-3 SARS-CoV-2 EC90) is 1.8 µM; in [1] (Severe acute respiratory syndrome coronavirus 2, Table 1 drugs, MOI 0.1, 48 h, 2% FBS, read-out: Vero CCL-81 SARS-CoV-2 EC90), 1.4 µM; in data set [8] (read-out: Caco-2 SARS-CoV-2 EC90), 12.2 µM. For the same molecule, the “Caco-2 Unbound Cmax/EC50” value in data set [7] worked out at 5.3. For the same molecule, the “Cmax (μM) {unbound}” value in [2] stood at 7.10 µM. For the same molecule, the “Fun (unbound fraction of drug in plasma)” value in data set [5] (plasma) is 1.

Take `CC(C)(O)c1ccccc1CC[C@@H](SCC1(CC(=O)O)CC1)c1cccc(/C=C/c2ccc3ccc(Cl)cc3n2)c1` [Montelukast sodium]: the “Cmax (μM) {unbound}” value in data set [4] stood at 0.009 µM.

`CC(C)C(=O)OC[C@H]1O[C@@](C#N)(c2ccc3c(N)ncnn23)[C@H](O)[C@@H]1O` [Obeldesivir]: the “Caco-2 Unbound Cmax/EC50” value in data set [7] came to 72. Also, in data set [2], the “Cmax (μM) {unbound}” value was 5.79 µM.

Regarding `COC[C@H]1C[C@@H](c2ncc(-c3ccc4c(c3)COc3cc5c(ccc6nc([C@@H]7CC[C@H](C)N7C(=O)[C@@H](NC(=O)OC)C(C)C)[nH]c65)cc3-4)[nH]2)N(C(=O)[C@H](NC(=O)OC)c2ccccc2)C1` [Velpatasvir], the EC50 in [1] (setting [9]) was determined as 19.1 µM. The EC90 in data set [1] (setting [10]) was 79.6 µM. Further, in data set [2], the “Cmax (μM) {unbound}” value was 0.001 µM. For the same molecule, the CC50 at 3 days in the data set “in vitro” is > 100 µM.

In the case of `O=C(O)COCCN1CCN(C(c2ccccc2)c2ccc(Cl)cc2)CC1` (centres unmarked) [cetirizine], the “anti-SARS-CoV-2 activity (in words)” value in data set [1] was “inactive”.

Take `C[C@@H]1C[C@H]2[C@@H]3CCC4=CC(=O)C=C[C@]4(C)[C@@]3(F)[C@@H](O)C[C@]2(C)[C@@]1(O)C(=O)CO` [dexamethasone]: the “anti-SARS-CoV-2 activity (in words)” value in data set [1] was “inactive”.

With `Nc1nc(=O)n([C@@H]2CS[C@H](CO)O2)cc1F` [emtricitabine], the “antiviral activity in Vero CCL-81 cells (in words)” value (“antiviral activity” below) in [1] (setting [11]) is on record as “lack of antiviral activity”.

In the case of `Nc1ccn([C@@H]2CS[C@H](CO)O2)c(=O)n1` [lamivudine], in data set [1] (setting [11]), the “antiviral activity” value was “lack of antiviral activity”.

Turning to `c1cc(CN2CCCNCCNCCCNCC2)ccc1CN1CCCNCCNCCCNCC1` [plerixafor], the “anti-SARS-CoV-2 activity (in words)” value in data set [1] was “inactive”.

For `NC(=O)c1ncn([C@@H]2O[C@H](CO)[C@@H](O)[C@H]2O)n1` [ribavirin], the “antiviral activity” value in data set [1] (setting [11]) is given as “lack of antiviral activity”.

With `CC(C)OC(=O)[C@H](C)N[P@](=O)(OC[C@H]1O[C@@H](n2ccc(=O)[nH]c2=O)[C@](C)(F)[C@@H]1O)Oc1ccccc1` [sofosbuvir], the “antiviral activity” value in data set [1] is given as “lack of antiviral activity”.

In the case of `CC(C)OC(=O)[C@H](C)N[P@](=O)(CO[C@H](C)Cn1cnc2c(N)ncnc21)Oc1ccccc1` [tenofovir alafenamide], the “antiviral activity” value in [1] is listed as “lack of antiviral activity”.

For `CC(C)OC(=O)OCOP(=O)(CO[C@H](C)Cn1cnc2c(N)ncnc21)OCOC(=O)OC(C)C` [tenofovir disoproxil fumarate], in [1] (setting [11]), the “antiviral activity” value is “lack of antiviral activity”.
